The values that follow come from ChEMBL document CHEMBL1147639, “Quinolines as extremely potent and selective PDE5 inhibitors as potential agents for treatment of erectile dysfunction” (Bioorg Med Chem Lett, 2004).

Bounds are passed on as bounds.

System in one experiment: not listed separately
The experiment is described as follows: Relative inhibition of bovine heart PDE1 and human platelet PDE5.
On to `COc1ccc(CNc2c(C(=O)NCc3ccccn3)cnc3ccc(C#N)cc23)cc1Cl`, for which the Selectivity ratio was more than 100000.
Same read-out and setting: the same measure for `CCc1cc(C#N)cc2c(NCc3ccc(OC)c(Cl)c3)c(CO)cnc12`: more than 1e+06; for `COc1ccc(CNc2ccnc3ccc(C#N)cc23)cc1Cl`: 6400; for `CCOC(=O)c1cnc2cc(C(F)(F)F)ccc2c1NCc1ccc(OC)c(Cl)c1`: more than 310.
As for `CCOC(=O)c1cnc2c(CC)cc(C#N)cc2c1NCc1ccc(OC)c(Cl)c1`, the Selectivity ratio is more than 100000.
On to `CCOC(=O)c1cnc2ccc(C(F)(F)F)cc2c1NCc1ccc(OC)c(Cl)c1`, for which the Selectivity ratio was more than 680.
Same read-out and setting: with `COc1ccc(CNc2c(CO)cnc3ccc(C#N)cc23)cc1Cl` the figure was more than 100000.

System in a further experiment: not listed separately
Put plainly: Relative inhibition of bovine retina PDE6 and human platelet PDE 5.
Consider `COc1ccc(CNc2c(C(=O)NCc3ccccn3)cnc3ccc(C#N)cc23)cc1Cl`, for which the Selectivity ratio was found to be 64.
Same read-out and setting: with `CCc1cc(C#N)cc2c(NCc3ccc(OC)c(Cl)c3)c(CO)cnc12` the figure was 7800; with `COc1ccc(CNc2ccnc3ccc(C#N)cc23)cc1Cl`, 29; with `CCOC(=O)c1cnc2cc(C(F)(F)F)ccc2c1NCc1ccc(OC)c(Cl)c1`, 125.
Still for that read-out and setting: the same measure for `CCc1cc(C#N)cc2c(NCc3ccc(OC)c(Cl)c3)c(C(=O)NCc3ccccn3)cnc12`: 82.
With `CCOC(=O)c1cnc2ccc(C#N)cc2c1NCc1ccc(OC)c(Cl)c1`, the Selectivity ratio was 15.
On to `CCc1cc(C#N)cc2c(NCc3ccc(OC)c(Cl)c3)ccnc12`, for which the Selectivity ratio worked out at 40.
On the same count and under the same terms, with `CCOC(=O)c1cnc2c(CC)cc(C#N)cc2c1NCc1ccc(OC)c(Cl)c1` the figure was 110; with `CCOC(=O)c1cnc2ccc(C(F)(F)F)cc2c1NCc1ccc(OC)c(Cl)c1`, 75.
The same measure, in the same setting: with `COc1ccc(CNc2c(CO)cnc3ccc(C#N)cc23)cc1Cl` the figure was 23.

The target in another experiment is cGMP-dependent 3',5'-cyclic phosphodiesterase (Rattus norvegicus) (UniProt Q01062). The experiment is described as follows: Inhibition of phosphodiesterase 2.
Chain of cGMP-dependent 3',5'-cyclic phosphodiesterase (Rattus norvegicus) (Q01062 whole entry, looked up): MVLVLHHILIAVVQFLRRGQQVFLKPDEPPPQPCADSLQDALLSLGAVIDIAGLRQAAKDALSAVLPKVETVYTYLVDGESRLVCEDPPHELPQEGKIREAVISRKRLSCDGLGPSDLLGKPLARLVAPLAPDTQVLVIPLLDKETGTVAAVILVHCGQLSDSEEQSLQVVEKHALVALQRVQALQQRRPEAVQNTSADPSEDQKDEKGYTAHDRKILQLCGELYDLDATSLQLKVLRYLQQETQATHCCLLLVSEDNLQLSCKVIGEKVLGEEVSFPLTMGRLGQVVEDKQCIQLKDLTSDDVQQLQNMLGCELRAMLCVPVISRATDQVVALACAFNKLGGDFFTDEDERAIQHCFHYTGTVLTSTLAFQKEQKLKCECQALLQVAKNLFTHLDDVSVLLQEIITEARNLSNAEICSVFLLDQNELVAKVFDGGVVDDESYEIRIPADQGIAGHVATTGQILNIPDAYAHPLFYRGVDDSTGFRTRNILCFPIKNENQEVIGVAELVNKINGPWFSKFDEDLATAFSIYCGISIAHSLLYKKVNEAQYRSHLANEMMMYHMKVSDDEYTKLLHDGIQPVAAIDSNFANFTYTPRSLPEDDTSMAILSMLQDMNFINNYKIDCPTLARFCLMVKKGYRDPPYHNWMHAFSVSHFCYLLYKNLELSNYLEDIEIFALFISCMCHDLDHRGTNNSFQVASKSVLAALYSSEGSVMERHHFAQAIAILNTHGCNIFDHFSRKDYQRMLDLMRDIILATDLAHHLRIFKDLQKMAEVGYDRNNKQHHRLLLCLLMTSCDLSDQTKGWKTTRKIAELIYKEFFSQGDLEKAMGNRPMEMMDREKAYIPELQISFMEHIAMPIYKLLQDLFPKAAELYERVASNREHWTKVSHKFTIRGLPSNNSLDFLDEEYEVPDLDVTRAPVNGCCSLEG
What is called IC50 is the concentration that inhibits the measured activity by half. High values mean weaker potency in that assay, low ones greater potency in that assay. For the compound `CCOC(=O)c1cnc2cc(C(F)(F)F)ccc2c1NCc1ccc(OC)c(Cl)c1`, the IC50 was more than 50000 nM.

A further experiment concerns the target Phosphodiesterase 1 (Bos taurus, UniProt Q01061+P14100). Put plainly: Inhibition of phosphodiesterase 1 of bovine heart. The experiment is classed as protein assay.
`CCOC(=O)c1cnc2cc(C(F)(F)F)ccc2c1NCc1ccc(OC)c(Cl)c1` came in with an IC50 of more than 50000 nM.

For the next experiment, the target named is Phosphodiesterase 3 (Homo sapiens, UniProt Q14432+Q13370). Put plainly: Inhibitory activity of compound against phosphodiesterase 3 was tested. The experiment is classed as protein assay.
In the case of `CCOC(=O)c1cnc2cc(C(F)(F)F)ccc2c1NCc1ccc(OC)c(Cl)c1`, the IC50 is more than 50000 nM.

Another experiment has as its target Phosphodiesterase 6. Put plainly: Inhibition of phosphodiesterase 6. The experiment is classed as protein assay.
In the case of `CCOC(=O)c1cnc2cc(C(F)(F)F)ccc2c1NCc1ccc(OC)c(Cl)c1`, the IC50 turned out to be 20000 nM.

System in a further experiment: not listed separately
The experiment is described as follows: Relative inhibition of rat kidney PDE2 and human platelet PDE 5.
For `COc1ccc(CNc2c(C(=O)NCc3ccccn3)cnc3ccc(C#N)cc23)cc1Cl`, the Selectivity ratio is more than 100000.
For the compound `CCc1cc(C#N)cc2c(NCc3ccc(OC)c(Cl)c3)c(CO)cnc12`, the Selectivity ratio was more than 100000.
`COc1ccc(CNc2ccnc3ccc(C#N)cc23)cc1Cl`: the Selectivity ratio was more than 100000.
Still for that read-out and setting: the same measure for `CCOC(=O)c1cnc2cc(C(F)(F)F)ccc2c1NCc1ccc(OC)c(Cl)c1`: more than 310.
Same read-out and setting: with `CCOC(=O)c1cnc2ccc(C#N)cc2c1NCc1ccc(OC)c(Cl)c1` the figure was more than 100000; with `CCOC(=O)c1cnc2c(CC)cc(C#N)cc2c1NCc1ccc(OC)c(Cl)c1`, more than 100000.
Consider `CCOC(=O)c1cnc2ccc(C(F)(F)F)cc2c1NCc1ccc(OC)c(Cl)c1`, for which the Selectivity ratio is more than 680.
On the same count and under the same terms, the same measure for `COc1ccc(CNc2c(CO)cnc3ccc(C#N)cc23)cc1Cl`: 8600.

Molecular target in a further experiment: not listed separately
The experiment is described as follows: Inhibition of phosphodiesterase 4.
Compound `CCOC(=O)c1cnc2cc(C(F)(F)F)ccc2c1NCc1ccc(OC)c(Cl)c1` came in with an IC50 of more than 50000 nM.

System in another experiment: not listed separately
Put plainly: Relative inhibition of rat kidney PDE4 and human platelet PDE 5.
On to `COc1ccc(CNc2c(C(=O)NCc3ccccn3)cnc3ccc(C#N)cc23)cc1Cl`, for which the Selectivity ratio was 3100.
Same read-out and setting: with `COc1ccc(CNc2ccnc3ccc(C#N)cc23)cc1Cl` the figure was 3500; with `CCOC(=O)c1cnc2cc(C(F)(F)F)ccc2c1NCc1ccc(OC)c(Cl)c1`, more than 310; with `CCc1cc(C#N)cc2c(NCc3ccc(OC)c(Cl)c3)c(C(=O)NCc3ccccn3)cnc12`, 4500.
Take `CCOC(=O)c1cnc2ccc(C#N)cc2c1NCc1ccc(OC)c(Cl)c1`: the Selectivity ratio turned out to be 3800.
Consider `CCc1cc(C#N)cc2c(NCc3ccc(OC)c(Cl)c3)ccnc12`, for which the Selectivity ratio turned out to be 2200.
Turning to `CCOC(=O)c1cnc2c(CC)cc(C#N)cc2c1NCc1ccc(OC)c(Cl)c1`, the Selectivity ratio is more than 100000.
Take `CCOC(=O)c1cnc2ccc(C(F)(F)F)cc2c1NCc1ccc(OC)c(Cl)c1`: the Selectivity ratio amounted to 247.
For `COc1ccc(CNc2c(CO)cnc3ccc(C#N)cc23)cc1Cl`, the Selectivity ratio is more than 100000.

In a further experiment the target is cGMP-specific 3',5'-cyclic phosphodiesterase (Homo sapiens, UniProt O76074). Put plainly: Inhibition of phosphodiesterase 5 from human platelets.
The compound `COc1ccc(CNc2c(C(=O)NCc3ccccn3)cnc3ccc(C#N)cc23)cc1Cl` registered an IC50 of 1.3 nM.
Still for that read-out and setting: the same measure for `CCc1cc(C#N)cc2c(NCc3ccc(OC)c(Cl)c3)c(CO)cnc12`: 0.05 nM; for `COc1ccc(CNc2ccnc3ccc(C#N)cc23)cc1Cl`: 1.4 nM.
Consider `CCOC(=O)c1cnc2cc(C(F)(F)F)ccc2c1NCc1ccc(OC)c(Cl)c1`, for which the IC50 was determined as 160 nM.
Still for that read-out and setting: with `CCc1cc(C#N)cc2c(NCc3ccc(OC)c(Cl)c3)c(C(=O)NCc3ccccn3)cnc12` the figure was 0.55 nM; with `CCOC(=O)c1cnc2c(CC)cc(C#N)cc2c1NCc1ccc(OC)c(Cl)c1`, 0.6 nM.
As for `CCOC(=O)c1cnc2ccc(C(F)(F)F)cc2c1NCc1ccc(OC)c(Cl)c1`, it took 73 nM to reach half-maximal inhibition (IC50).
The same measure, in the same setting: with `COc1ccc(CNc2c(CO)cnc3ccc(C#N)cc23)cc1Cl` the figure was 0.48 nM.
